Assays:
[1] = biological target: T1, human orexin-2 receptor (OX2R) (Homo sapiens, UniProt O43614); experiment: In vitro orexin antagonism assay: intracellular calcium measurement (FLIPR), orexin-A 3 nM as agonist; format: cell-based; conditions: for inhibition at 1 µM: read-out: OX2R, % Inh. @ 1 uM; for IC50: first value of IC50/Kb cell; for Kb: second value of IC50/Kb cell
T1 construct: expressed in transfected cells; host or cells: CHO cells (G418 selection)
T1 sequence (O43614 1-444): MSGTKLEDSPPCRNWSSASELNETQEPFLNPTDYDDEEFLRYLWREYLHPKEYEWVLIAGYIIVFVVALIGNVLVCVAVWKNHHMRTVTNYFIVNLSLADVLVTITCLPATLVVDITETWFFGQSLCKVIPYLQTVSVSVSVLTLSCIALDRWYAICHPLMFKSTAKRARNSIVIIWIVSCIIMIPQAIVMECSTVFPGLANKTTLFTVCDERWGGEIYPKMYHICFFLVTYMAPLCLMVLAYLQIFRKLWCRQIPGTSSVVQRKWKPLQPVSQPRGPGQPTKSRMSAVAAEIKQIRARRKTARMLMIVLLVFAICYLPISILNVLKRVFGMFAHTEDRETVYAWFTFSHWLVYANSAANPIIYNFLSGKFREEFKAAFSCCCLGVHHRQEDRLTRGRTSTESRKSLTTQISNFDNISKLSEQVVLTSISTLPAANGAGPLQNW
Procedure: Antagonistic activities on both orexin receptors have been measured for each example compound using the following procedure:
(§1) In Vitro Orexin Antagonism Measurement Assay: Intracellular Calcium Measurements:
(§2) Chinese hamster ovary (CHO) cells expressing the human […] and the human orexin-2 receptor, respectively, are grown in culture medium (Ham F-12 with L-Glutamine) containing 300 μg/mL G418, 100 U/mL penicillin, 100 μg/mL streptomycin and 10% heat inactivated fetal calf serum (FCS). The cells are seeded at 20,000 cells/well into 384-well black clear bottom sterile plates (Greiner). The seeded plates are incubated overnight at 37° C. in 5% 002. Human orexin-A as an agonist is prepared as 1 mM stock solution in MeOH: water (1:1), diluted in HBSS containing 0.1% bovine serum albumin (BSA), NaHCO3: 0.375 g/L and 20 mM HEPES for use in the assay at a final concentration of 3 nM.
(§3) Antagonists are prepared as 10 mM stock solution in DMSO, then diluted in 384-well plates using DMSO followed by a transfer of the dilutions into in HBSS containing 0.1% bovine serum albumin (BSA), NaHCO3: 0.375 g/L and 20 mM HEPES. On the day of the assay, 50 μL of staining buffer (HBSS containing 1% FCS, 20 mM HEPES, NaHCO3: 0.375 g/L, 5 mM probenecid (Sigma) and 3 μM of the fluorescent calcium indicator fluo-4 AM (1 mM stock solution in DMSO, containing 10% pluronic) is added to each well. The 384-well cell-plates are incubated for 50 min at 37° C. in 5% CO2 followed by equilibration at RT for 30 min before measurement.
(§4) Within the Fluorescent Imaging Plate Reader (FLIPR Tetra, Molecular Devices), antagonists are added to the plate in a volume of 10 μL/well, incubated for 120 min and finally 10 μL/well of agonist is added. Fluorescence is measured for each well at 1 second intervals, and the height of each fluorescence peak is compared to the height of the fluorescence peak induced by 3 nM orexin-A with vehicle in place of antagonist. The IC50 value (the concentration of compound needed to inhibit 50% of the agonistic response) is determined and may be normalized using the obtained IC50 value of an on-plate reference compound. Optimized conditions were achieved by adjustment of pipetting speed and cell splitting regime. The calculated IC50values may fluctuate depending on the daily cellular assay performance. Fluctuations of this kind are known to those skilled in the art. In the case where IC50values have been determined several times for the same compound, the geometric mean has been given.

[2] = biological target: T2, Orexin type 1 (OX1R) receptor (Homo sapiens, UniProt O43613); experiment: as above; format: cell-based; conditions: for IC50: first value of IC50/Kb cell; for inhibition at 1 µM: read-out: OX1R, % Inh. @ 1 uM; for Kb: second value of IC50/Kb cell
T2 construct: expressed in transfected cells; host or cells: CHO cells (G418 selection)
T2 sequence (O43613 1-425): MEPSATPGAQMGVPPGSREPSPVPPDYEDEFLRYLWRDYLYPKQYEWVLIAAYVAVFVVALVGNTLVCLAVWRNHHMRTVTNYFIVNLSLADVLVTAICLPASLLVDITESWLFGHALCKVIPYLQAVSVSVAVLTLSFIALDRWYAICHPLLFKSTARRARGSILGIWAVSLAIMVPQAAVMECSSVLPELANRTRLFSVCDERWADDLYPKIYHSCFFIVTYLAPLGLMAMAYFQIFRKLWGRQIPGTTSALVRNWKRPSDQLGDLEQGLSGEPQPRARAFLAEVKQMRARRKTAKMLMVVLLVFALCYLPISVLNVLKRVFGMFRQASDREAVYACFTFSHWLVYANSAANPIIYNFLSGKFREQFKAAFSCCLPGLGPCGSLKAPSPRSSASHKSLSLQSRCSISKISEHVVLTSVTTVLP
Procedure: as §1, §2, §3
as §4, with “art.” for “art. In the case where IC50values have been determined several times for the same compound, the geometric mean has been given.”

Row | inhibition at 1 µM [1] | IC50 [2] | inhibition at 1 µM [2] | Kb [2] | IC50 [1] | Kb [1] | Structure (SMILES) | OX2R, % Inh. @ 1 uM ([1]; @ 1 uM) | OX1R, % Inh. @ 1 uM ([2]; @ 1 uM)
1 | 50.4% | 9 nM | 99% | 2 nM | – | – | O=C(c1c(-c2ccccc2)nn2c1COCC2)N1CCCC[C@H]1CNc1ccc(C(F)(F)F)cn1 [Example 27] | – | –
2 | 43.3% | 327 nM | 79.2% | 69 nM | – | – | O=C(c1c(-c2ccccc2)nc2cc(F)ccn12)N1CCC[C@H]1COc1ccc(C(F)(F)F)cn1 [Example 52] | – | –
3 | 3.2% | – | 45.6% | – | – | – | O=C(c1c(-c2ccc(F)cc2)nn2ccccc12)N1CCC[C@H]1CNc1ccc(F)cn1 [Example 41] | – | –
4 | -3.4% | – | 4.7% | – | – | – | O=C(c1c(-c2ccccc2)nc2ncccn12)N1CCC[C@H]1CNc1ccc(F)cn1 [Example 31] | – | –
5 | 39.4% | 12 nM | 98.2% | 3 nM | – | – | O=C(c1c(-c2ccc(F)cc2)nn2ccccc12)N1CCC[C@H]1CNc1ccc(C(F)(F)F)cn1 [Example 42] | – | –
6 | 3.6% | – | 19.7% | – | – | – | O=C(c1c(-c2ccccc2)nc2ncccn12)N1CCC[C@H]1CNc1ccc(C(F)(F)F)cn1 [Example 32] | – | –
7 | 38.8% | 4 nM | 98.7% | 0.9 nM | – | – | O=C(c1c(-c2ccccc2)nc2ccccn12)N1CCCC[C@H]1COc1ccc(C(F)(F)F)cn1 [Example 45] | – | –
8 | 0% | – | 21% | – | – | – | O=C(c1nc2n(c1-c1ccccn1)CCOC2)N1CCC[C@H]1Cc1nc(-c2ccc(F)cn2)no1 [Example 220] | – | –
9 | 1.2% | – | 59.5% | – | – | – | O=C(c1c(-c2ccccc2)nc2ncccn12)N1CCCC[C@H]1COc1ccc(C(F)(F)F)cn1 [Example 47] | – | –
10 | 19% | – | -2% | – | – | – | O=C(c1c(-c2ccccc2F)nn2c1COCC2)N1CC[C@H]1Cn1ccc(-c2ccc(F)cc2)n1 [Example 100] | – | –
11 | 10% | – | 42% | – | – | – | O=C(c1nc2n(c1-c1ccccn1)CCOC2)N1CCC[C@H]1COc1ccc(C(F)(F)F)cn1 [Example 184] | – | –
12 | 60% | – | 31% | – | 660 nM | 110 nM | O=C(c1c(-c2ccccc2)nc2cc(C(F)(F)F)ccn12)N1CC[C@H]1Cn1ccc(-c2ccc(F)cc2)n1 [Example 102] | – | –
13 | 15% | – | 2% | – | – | – | C[C@@]1(COc2cnc(C(F)(F)F)cn2)CCCN1C(=O)c1c(-c2ccccc2)nn2c1COCC2 [Example 169] | – | –
14 | 57% | 210 nM | 76% | 45 nM | – | – | O=C(c1nc2n(c1-c1ccccn1)CCOC2)N1CCC[C@H]1Cn1cc(-c2ccccn2)cn1 [Example 217] | – | –
15 | 71% | 16 nM | 91% | 3 nM | – | – | O=C(c1nn2cccnc2c1-c1ccccn1)N1CCC[C@H]1Cn1ccc(-c2ccc(F)cn2)n1 [Example 193] | – | –
16 | 72% | 17 nM | 99.8% | 4 nM | 74 nM | 10 nM | O=C(c1c(-c2ccccc2)nn2ccccc12)N1CCCC[C@H]1CNc1ccc(C(F)(F)F)cn1 [Example 25] | – | –
17 | 39% | – | 17% | – | – | – | O=C(c1c(-c2ccccc2F)nn2c1COCC2)N1CCC[C@H]1Cn1cc(-c2ccc(F)cn2)cn1 [Example 83] | – | –

Row | inhibition at 1 µM [1] | IC50 [2] | inhibition at 1 µM [2] | Kb [2] | IC50 [1] | Kb [1] | Structure (SMILES) | OX2R, % Inh. @ 1 uM ([1]; @ 1 uM) | OX1R, % Inh. @ 1 uM ([2]; @ 1 uM)
18 | 0% | – | 25% | – | – | – | O=C(c1nc2n(c1-c1ccccn1)CCOC2)N1CCC[C@H]1Cc1nc(-c2ccccn2)no1 [Example 219] | – | –
19 | 23.7% | – | 54.8% | – | – | – | O=C(c1c(-c2ccccc2)nc2ncccn12)N1CCC[C@H]1Cn1ccc(-c2ccccc2)n1 [Example 35] | – | –
20 | 0.7% | – | 4.8% | – | – | – | O=C(c1c(-c2ccccc2)nc2ccccn12)N1CCC[C@H]1CNc1ccc(F)cn1 [Example 33] | – | –
21 | 11% | 771 nM | 75% | 162 nM | – | – | C[C@@]1(COc2cnc(C(F)(F)F)cn2)CCCN1C(=O)c1nc2ccccn2c1-c1ccccc1 [Example 163] | – | –
22 | 43% | – | 24% | – | – | – | O=C(c1c(-c2ccccc2F)nn2ccccc12)N1CC[C@H]1Cn1ccc(-c2ccc(F)cn2)n1 [Example 103] | – | –
23 | 61% | 440 nM | 59% | 92 nM | 270 nM | 46 nM | O=C(c1c(-c2ccccc2F)nn2ccccc12)N1CC[C@H]1Cn1ccc(-c2ccc(F)cc2)n1 [Example 99] | – | –
24 | 7.9% | – | 39.4% | – | – | – | O=C(c1c(-c2ccccc2)nc2cnccn12)N1CCC[C@H]1COc1ccc(C(F)(F)F)nc1 [Example 39] | – | –
25 | 36% | – | 41% | – | – | – | O=C(c1c(-c2ccccc2)nn2c1COCC2)N1CCC[C@H]1Cn1ccc(-c2ccc(F)cn2)n1 [Example 93] | – | –
26 | 83% | – | 67% | – | 62 nM | 11 nM | O=C(c1c(-c2ccccn2)nn2ccccc12)N1CCC[C@H]1Cn1cc(-c2ccc(F)cn2)cn1 [Example 206] | – | –
27 | 14% | – | 8% | – | – | – | O=C(c1c(-c2ccccc2F)nn2c1COCC2)N1CC[C@H]1Cn1ccc(-c2ccc(F)cn2)n1 [Example 104] | – | –
28 | – | – | – | – | – | – | O=C(c1nc2ccccn2c1-c1ccccc1)N1CCC[C@H]1Cn1ccc(-c2ccc(F)cn2)n1 [Example 123] | 42% | 100%
29 | 32% | – | 45% | – | – | – | O=C(c1c(-c2ccccc2)nc2ccc(F)cn12)N1[C@H](Cn2ccc(-c3ccc(F)cn3)n2)C[C@@H]2C[C@@H]21 [Example 109] | – | –
30 | 45% | – | 40% | – | – | – | O=C(c1c(-c2ccccc2)nc2ccc(F)cn12)N1CCC[C@H]1Cn1cc(-c2ccccn2)cn1 [Example 74] | – | –
31 | 0% | 30 nM | 99% | 6 nM | – | – | O=C(c1nc2ccccn2c1-c1ccccn1)N1CCC[C@H]1Cn1ccc(-c2ccc(F)cn2)n1 [Example 207] | – | –
32 | 10% | – | 53% | – | – | – | C[C@@]1(COc2cnc(C(F)(F)F)cn2)CCCN1C(=O)c1c(-c2ncccn2)nn2ccccc12 [Example 166] | – | –
33 | 12% | 190 nM | 85% | 40 nM | – | – | O=C(c1nc2ccccn2c1-c1ccccn1)N1CCC[C@H]1Cc1nc(-c2ccc(F)cn2)no1 [Example 210] | – | –

From US20260070922A1, “PYRAZOLE AND IMIDAZOLE DERIVATIVES AS DUAL OREXIN AND KAPPA-OPIOID RECEPTORS MODULATORS COMPOSITION, METHODS FOR TREATING NEUROLOGICAL AND PSYCHIATRIC DISORDERS” (HAGER BIOSCIENCES, LLC, priority 2022, published 2026)
